Key:
Format in all cases: in vivo, human
[1] = tested on: adult subjects with schizophrenia; experiment: PANSS responder rate, Clinical Study Two; details: for PANSS 20% responder rate / PANSS 30% responder rate: Endpoint LOCF; for PANSS Responder at Endpoint, 30% Definition Responder, No / PANSS Responder at Endpoint, 30% Definition Responder, Yes / PANSS Responder at Week 6/Endpoint, 20% Definition, No / PANSS Responder at Week 6/Endpoint, 20% Definition, Yes: LOCF, ITT
Method: Notable differences were also observed between the 30 mg bifeprunox group and placebo for the change from baseline to endpoint in PANSS general psychopathology subscale score, BPRS total score, BPRS psychosis cluster score, PANSS responder rate, and CGI-I responder rate. […] A CGI-I responder refers to a subject who was categorized as “very much improved” or “much improved” in the CGI Global Improvement scale at endpoint. […]
Subjects who completed this study had the option to continue in the long-term. […] Risperidone-treated subjects were titrated from 2 mg to 6 mg daily over a three-day period and were subsequently maintained at 6 mg/day for the remainder of the treatment period. […] Blood samples were also obtained at Screening/Baseline, Week 3, and Week 6 for clinical laboratory assessments. […]

[2] = tested on: adult subjects with schizophrenia; experiment: PANSS negative symptom subscale score, Clinical Study Two; details: LOCF, ITT; for PANSS Negative Symptom Subscale Score, Trt Effect (bifeprunox—placebo): ANCOVA
Method: Rating scale assessments were performed weekly, except for week 5, to measure the change from baseline to endpoint of the PANSS total score. Other assessments included: PANSS positive symptom subscale score, PANSS negative symptom subscale score, PANSS general pschopathology subscale score, BPRS total score, BPRS psychosis score, the CGI-S score, the CGI-I score, responder rates based on the PANSS total score, and the Calgary Depression Scale for Schizophrenia (CDSS). […]
Subjects who completed this study had the option to continue in the long-term. […] Risperidone-treated subjects were titrated from 2 mg to 6 mg daily over a three-day period and were subsequently maintained at 6 mg/day for the remainder of the treatment period. […] Blood samples were also obtained at Screening/Baseline, Week 3, and Week 6 for clinical laboratory assessments.

[3] = tested on: adult subjects with schizophrenia; experiment: BPRS total score, Clinical Study One; details: ITT population
Method: There were five treatment groups in this study. […] Study medication was administered once daily. After Baseline measurements were performed, the titration phase was begun. Bifeprunox treated subjects were titrated up to 5 mg, 10 mg or 20 mg according to a standardized titration schedule (Day 1: 0.125 mg, Day 2: 0.25 mg, Day 3: 0.5 mg, Day 4: 1.0 mg, Day 5: 2.0 mg, Day 6: 5.0 mg, Day 7: 10.0 mg, Day 8: 20 mg). When the assigned dose was reached, subjects were maintained at that dose for the remainder of the six-week treatment period.
The change in the Positive and Negative Symptom Scale (PANSS) total score, from baseline to endpoint, was the primary outcome measure. Secondary efficacy measures included: PANSS positive, PANSS negative, PANSS general psychopathology (GPP) score, PANSS-derived Brief Psychiatric Rating Scale (BPRS) score, Clinical Global Impressions-Severity of Illness (CGI-S), CGI-Improvement (CGI-I) scores, and responder rates. Safety and tolerability evaluations included extrapyramidal symptoms (EPS), weight gain, lipid profile, and serum prolactin.

[4] = Bifeprunox 30 mg, Week 6/Endpoint
[5] = Bifeprunox 40 mg, Week 6/Endpoint
[6] = Bifeprunox 10 mg, Endpoint LOCF

O=c1[nH]c2cccc(N3CCN(Cc4cccc(-c5ccccc5)c4)CC3)c2o1 [Bifeprunox, 7-[4-([1,1′-biphenyl]-3-ylmethyl)-1-piperazinyl]-2(3H)-benzoxazolone]
PANSS 20% responder rate ([1]; bifeprunox 30 mg): 36% | PANSS 30% responder rate ([1]; bifeprunox 30 mg): 24% | PANSS Responder at Endpoint, 30% Definition Responder, No ([1]; bifeprunox 30 mg): 106 (76%) n (%) | PANSS Responder at Endpoint, 30% Definition Responder, Yes ([1]; bifeprunox 30 mg): 34 (24%) n (%) | PANSS Responder at Week 6/Endpoint, 20% Definition, No ([1]; bifeprunox 30 mg): 89 (64%) n (%) | PANSS Responder at Week 6/Endpoint, 20% Definition, Yes ([1]; bifeprunox 30 mg): 51 (36%) n (%) | PANSS 20% responder rate ([1]; bifeprunox 40 mg): 30% | PANSS 30% responder rate ([1]; bifeprunox 40 mg): 22% | PANSS Responder at Endpoint, 30% Definition Responder, No ([1]; bifeprunox 40 mg): 110 (78%) n (%) | PANSS Responder at Endpoint, 30% Definition Responder, Yes ([1]; bifeprunox 40 mg): 31 (22%) n (%) | PANSS Responder at Week 6/Endpoint, 20% Definition, No ([1]; bifeprunox 40 mg): 99 (70%) n (%) | PANSS Responder at Week 6/Endpoint, 20% Definition, Yes ([1]; bifeprunox 40 mg): 42 (30%) n (%) | Change from Baseline in PANSS Negative Symptom Subscale Score, Mean (SD) ([2]; Bifeprunox 30 mg, Week 1): −1.6 (3.7) | Change from Baseline in PANSS Negative Symptom Subscale Score, Median ([2]; Bifeprunox 30 mg, Week 1): −1 | Change from Baseline in PANSS Negative Symptom Subscale Score, Mean (SD) ([2]; Bifeprunox 30 mg, Week 2): 2.6 (4.4) | Change from Baseline in PANSS Negative Symptom Subscale Score, Median ([2]; Bifeprunox 30 mg, Week 2): −2 | Change from Baseline in PANSS Negative Symptom Subscale Score, Mean (SD) ([2]; Bifeprunox 30 mg, Week 3): −3.0 (5.0) | Change from Baseline in PANSS Negative Symptom Subscale Score, Median ([2]; Bifeprunox 30 mg, Week 3): −3 | Change from Baseline in PANSS Negative Symptom Subscale Score, Mean (SD) ([2]; Bifeprunox 30 mg, Week 4): −3.1 (5.3) | Change from Baseline in PANSS Negative Symptom Subscale Score, Median ([2]; Bifeprunox 30 mg, Week 4): −2 | Change from Baseline in PANSS Negative Symptom Subscale Score, Mean (SD) [2, 4]: −3.1 (5.6) | Change from Baseline in PANSS Negative Symptom Subscale Score, Median [2, 4]: −2 | PANSS Negative Symptom Subscale Score, Trt Effect (bifeprunox—placebo) [2, 4]: −1.4 | Change from Baseline in PANSS Negative Symptom Subscale Score, Mean (SD) ([2]; Bifeprunox 40 mg, Week 1): −1.2 (3.3) | Change from Baseline in PANSS Negative Symptom Subscale Score, Median ([2]; Bifeprunox 40 mg, Week 1): −1 | Change from Baseline in PANSS Negative Symptom Subscale Score, Mean (SD) ([2]; Bifeprunox 40 mg, Week 2): −1.9 (4.0) | Change from Baseline in PANSS Negative Symptom Subscale Score, Median ([2]; Bifeprunox 40 mg, Week 2): −2 | Change from Baseline in PANSS Negative Symptom Subscale Score, Mean (SD) ([2]; Bifeprunox 40 mg, Week 3): −2.2 (4.7) | Change from Baseline in PANSS Negative Symptom Subscale Score, Median ([2]; Bifeprunox 40 mg, Week 3): −1 | Change from Baseline in PANSS Negative Symptom Subscale Score, Mean (SD) ([2]; Bifeprunox 40 mg, Week 4): −2.1 (4.9) | Change from Baseline in PANSS Negative Symptom Subscale Score, Median ([2]; Bifeprunox 40 mg, Week 4): −1 | Change from Baseline in PANSS Negative Symptom Subscale Score, Mean (SD) [2, 5]: −2.2 (5.4) | Change from Baseline in PANSS Negative Symptom Subscale Score, Median [2, 5]: −1 | PANSS Negative Symptom Subscale Score, Trt Effect (bifeprunox—placebo) [2, 5]: −0.9 | Change from Baseline in BPRS Total Score, Mean (S.D.) ([3]; Bifeprunox 5 mg, Endpoint LOCF): −6.2 (10.5) | Change from Baseline in BPRS Total Score, Median ([3]; Bifeprunox 5 mg, Endpoint LOCF): −5 | Change from Baseline in BPRS Total Score, Trt Effect (bifeprunox—placebo) ([3]; Bifeprunox 5 mg, Endpoint LOCF): −2.4 | Change from Baseline in BPRS Total Score, Mean (S.D.) ([3]; Bifeprunox 5 mg, Week 1, LOCF): −2.4 (7.5) | Change from Baseline in BPRS Total Score, Median ([3]; Bifeprunox 5 mg, Week 1, LOCF): −3 | Change from Baseline in BPRS Total Score, Mean (S.D.) ([3]; Bifeprunox 5 mg, Week 2, LOCF): −4.2 (8.6) | Change from Baseline in BPRS Total Score, Median ([3]; Bifeprunox 5 mg, Week 2, LOCF): −4 | Change from Baseline in BPRS Total Score, Mean (S.D.) ([3]; Bifeprunox 5 mg, Week 3, LOCF): −5.2 (9.7) | Change from Baseline in BPRS Total Score, Median ([3]; Bifeprunox 5 mg, Week 3, LOCF): −5 | Change from Baseline in BPRS Total Score, Mean (S.D.) ([3]; Bifeprunox 5 mg, Week 4, LOCF): −5.6 (10.2) | Change from Baseline in BPRS Total Score, Median ([3]; Bifeprunox 5 mg, Week 4, LOCF): −5 | Change from Baseline in BPRS Total Score, Mean (S.D.) [3, 6]: −3.4 (11.5) | Change from Baseline in BPRS Total Score, Median [3, 6]: −2 | Change from Baseline in BPRS Total Score, Trt Effect (bifeprunox—placebo) [3, 6]: −0.6 | Change from Baseline in BPRS Total Score, Mean (S.D.) ([3]; Bifeprunox 10 mg, Week 1, LOCF): −2.0 (7.2)

Source: patent publication US20090068290A1, “BIFEPRUNOX DOSES FOR TREATING SCHIZOPHRENIA” (priority 2006, published 2009)
